Values of other authors in patent publication US20220000787A1, “DELAYED RELEASE PHARMACEUTICAL COMPOSITION OF PREDNISONE AND PREPARATION THEREOF” (PIRAMAL PHARMA LIMITED, priority 2020, published 2022).

## C[C@]12C=CC(=O)C=C1CC[C@@H]1[C@@H]2C(=O)C[C@@]2(C)[C@H]1CC[C@]2(O)C(=O)CO [Prednisone, 17,21-dihydroxypregna-1,4-diene-3,11,20-trione]
alcohol, chloroform, dioxane, methanol
  Solubility in alcohol, chloroform, dioxane, and methanol: slightly soluble
water
  Solubility in water: very slightly soluble
